The values below come from patent US6005099A, “Glucosamine disaccharides, method for their preparation, pharmaceutical composition comprising same, and their use” (priority 1993, dated 1999).

Assay [1] concerns macrophages of C57BL/6 mice. Briefly: Nitric oxide (NO) production in supernatants of macrophages. In kind it is cell-based. The protocol: (§1) Bone marrow was collected from hip, femur and tibia of six week old male C57BL/6 mice.
(§2) After 7 days the mature macrophages were collected and resuspended in Dulbecco modified medium comprising 5% foetal calf serum to a concentration of 7×10^6 cells per ml. This cell suspension was mixed 1:1, (v/v) with samples diluted in the same medium and used in the biological tests performed in microplates with 70,000 cells/well (incubation at 37° C. for 22 hours, 100% humidity and 8% CO2).
Nitric oxide (NO) is produced by macrophages in response to bacterial infection and in particular LPS. NO seems to have cytostatic and cytotoxic properties. NO is extremely reactive and rapidly converted by oxidation into nitrite and nitrate.
The nitrite formation was determined using the Griess test (addition of 1:1, (v/v) N-(1-naphthyl)ethylene diamine hydrochloride [1 g/l in water] and p-aminobenzenesulphonamide [10 g/l in 5% H3 PO4 ]). The nitrite concentration in supernatants of activated macrophages was calculated in comparison to NaNO2 standards.

For assay [2], the system named is macrophages of C57BL/6 mice. Briefly: Production of interleukin-6 (IL-6) in supernatants of macrophages, ELISA. In kind it is cell-based. The procedure: as §1, §2
IL-6 concentration in supernatants of macrophages was determined by an ELISA test (Kit ENDOGEN, EM-IL-6).
(In general: ELISA stands for enzyme-linked immunosorbent assay.)

For assay [3], the system named is Limulus amoebocyte lysate (LAL). Kind of assay: Endotoxicity in the limulus amoebocyte lysate (LAL) test (gelification and chromogenic). In kind it is biochemical, Limulus polyphemus. The protocol: The endotoxicity and the biological activity of disaccharide A (example 1) and of disaccharide B (example 2) were determined and compared to that of lipopolysaccharide originating from Escherichia coli O111:B4 (Sigma, Product No. L3024), lipid A (Sigma, Product No. L5399; used as a starting material in example 4), and 3-O-deacylated lipid A originating from lipid A of Escherichia coli F583 (prepared as in the comparative example), but without purification by HPLC.
The endotoxicity was determined in the Limulus amoebocyte lysate (LAL) test. This test is based on the observation that endotoxins induce coagulation of the hemolymph of Limulus polyphemus.
In the gelification test serial dilutions of the compound to be tested were mixed with LAL 1:1, (v/v) (Haemachem Inc., sensitivity LAL 0.06 endotoxin units/ml), and the mixture was incubated for one hour at 37° C. Then gel formation was monitored by measuring the optical density at 405 nm. The last dilution which formed a gel was determined by inverting the reaction microplate. The endotoxin activity in the samples was determined by comparison with dilutions of a lipopolysaccharide standard (1 endotoxin unit=0.1 ng LPS).
The endotoxicity was also measured in the chromogenic test, in which the activation of a protease in LAL by LPS was measured using a chromogen (Ac-Ile-Glu-Ala-Arg-pNA; Bio Whittaker Kit No. 50-650U). […]

Where [4] appears, read: for lipid A and 3-O-deacylated lipid A activity relatively constant within the tested range, no maximum.

Converted amounts (≈) assume the structure as drawn. “Also recorded” adds a separate entry of the source.

In the case of `CCCCCCCCCCCC(=O)O[C@H](CCCCCCCCCCC)CC(=O)N[C@H]1[C@H](OC[C@H]2O[C@H](OP(=O)(O)O)[C@H](NC(=O)C[C@H](O)CCCCCCCCCCC)[C@@H](O)[C@@H]2O)O[C@H](CO)[C@@H](OP(=O)(O)O)[C@@H]1O` [disaccharide A, 2-Deoxy-6-O-[2-deoxy-2-[(R)-3-dodecanoyloxytetradecanoylamino]-4-O-phosphono-β-D-glucopyranosyl]-2-[(R)-3-hydroxytetradecanoylamino]-α-D-glucopyranosyl dihydrogenphosphate], the EC50 was 0.16 µg/mL (≈ 0.141 µM) in assay [1] (Mus musculus, Macrophage, product concentration corresponding to 50% activity, 22 hours, 37° C.) and 1 µg/mL (≈ 0.881 µM) in assay [2] (Mus musculus, Macrophage, read-out: IL-6: 50% activity, concentration). Also, the minimal effective concentration in assay [1] (Mus musculus, Macrophage, product concentration corresponding to induced NO activity, 22 hours, 37° C., read-out: NO production: Minimum activity (product concentration)) was found to be 0.016 µg/mL; in assay [2] (Mus musculus, Macrophage, 22 h, read-out: IL-6: Minimum activity, concentration) it was 0.016 µg/mL. Moreover, in assay [1] (extrapolated from the series dilution curve), the “NO activity at 50% in nmol of NO2- /ml” value was 5 nmol of NO2- /ml. Besides, in assay [1] (macrophages of C57BL/6 mice), the “NO production, in words” value is “induce NO production of the same order; also recorded: as strongly as lipid A and 3-O-deacylated lipid A”. The “NO production: Maximum activity (product concentration)” value in assay [1] (product concentration corresponding to induced NO activity, 22 hours, 37° C.) worked out at 50 µg/mL. The “IL-6 at 50% activity” value in assay [2] (50% activity) is 2850 pg/mL. Also, the “IL-6 at minimum activity” value in assay [2] (at the concentration of minimum activity) stood at 850 ± 350 pg/mL. Also, the “IL-6: Maximum activity, concentration” value in assay [2] (setting [4]) was determined as 50 µg/mL. Also, the “IL-6 at maximum activity” value in assay [2] (setting [4]) is 5700 ± 2650 pg/mL. Moreover, the “IL-6 production, in words” value in assay [2] (macrophages of C57BL/6 mice) is “significantly lower than for LPS; also recorded: more strongly than lipid A and 3-O-deacylated lipid A”. Moreover, the “Endotoxicity in LAL, in words” value in assay [3] is “lowest endotoxicity”.
